Experimental data published in ChEMBL document CHEMBL1201862, “PubChem BioAssay data set” (2004).
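96-well plates; 48 h exposure; 5 concentrations. Endpoints by linear interpolation between flanking doses. Not reached: highest tested concentration assigned. GI50 is the concentration that inhibits growth by half.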 The source made the active and inactive calls. Rule as the data show it: active = GI50 up to about 1.1 µM and inactive = higher.

Key:
Assay in all cases: inhibition of tumour cell growth, NCI panel, 48 h
SW-620 = test system: SW-620
EKVX = test system: EKVX
KM12 = test system: KM12
Malme-3M = test system: Malme-3M
SK-OV-3 = test system: SK-OV-3
UACC-257 = test system: UACC-257
HCT-116 = test system: HCT-116
OVCAR-8 = test system: OVCAR-8
OVCAR-4 = test system: OVCAR-4
T47D = test system: T47D
RPMI-8226 = test system: RPMI-8226
TK-10 = test system: TK-10
COLO 205 = test system: COLO 205
SF-539 = test system: SF-539
HOP-62 = test system: HOP-62
SNB-19 = test system: SNB-19
HCC 2998 = test system: HCC 2998
OVCAR-3 = test system: OVCAR-3
BT-549 = test system: BT-549
HL-60 = test system: HL-60
K562 = test system: K562
SNB-75 = test system: SNB-75
IGROV-1 = test system: IGROV-1
UO-31 = test system: UO-31
NCI/ADR-RES = test system: NCI/ADR-RES
M14 = test system: M14
U-251 = test system: U-251
SK-MEL-5 = test system: SK-MEL-5
SF-268 = test system: SF-268
SK-MEL-28 = test system: SK-MEL-28
MOLT-4 = test system: MOLT-4
Hs-578T = test system: Hs-578T
HCT-15 = test system: HCT-15
MCF7 = test system: MCF7
HT-29 = test system: HT-29
786-0 = test system: 786-0
SN12C = test system: SN12C
LOX IMVI = test system: LOX IMVI
MDA-MB-231 = test system: MDA-MB-231
CAKI-1 = test system: CAKI-1
NCI-H226 = test system: NCI-H226
PC-3 = test system: PC-3
UACC-62 = test system: UACC-62
CCRF-CEM = test system: CCRF-CEM
NCI-H23 = test system: NCI-H23
A549 = test system: A549
RXF 393 = test system: RXF 393
SF-295 = test system: SF-295
DU-145 = test system: DU-145
OVCAR-5 = test system: OVCAR-5
MDA-MB-435 = test system: MDA-MB-435
A498 = test system: A498
NCI-H522 = test system: NCI-H522
NCI-H460 = test system: NCI-H460
ACHN = test system: ACHN
HOP-92 = test system: HOP-92

SMILES: CC(=O)OC12c3ccccc3C(c3ccccc31)C1C(=O)N(c3ccccn3)C(=O)C12 (stereo not given)
- GI50 (SW-620): > 100 µM (inactive)
- GI50 (EKVX): > 100 µM (inactive)
- GI50 (KM12): 50.1 µM (inactive)
- GI50 (Malme-3M): 31.8 µM (inactive)
- GI50 (SK-OV-3): > 100 µM (inactive)
- GI50 (UACC-257): 31.3 µM (inactive)
- GI50 (HCT-116): 54.7 µM (inactive)
- GI50 (OVCAR-8): > 100 µM (inactive)
- GI50 (OVCAR-4): > 100 µM (inactive)
- GI50 (T47D): 53.3 µM (inactive)
- GI50 (RPMI-8226): 27.1 µM (inactive)
- GI50 (TK-10): > 100 µM (inactive)
- GI50 (COLO 205): 64.6 µM (inactive)
- GI50 (SF-539): > 100 µM (inactive)
- GI50 (HOP-62): 65.6 µM (inactive)
- GI50 (SNB-19): 14.7 µM (inactive)
- GI50 (HCC 2998): 72.6 µM (inactive)
- GI50 (OVCAR-3): 28.4 µM (inactive)
- GI50 (BT-549): 38.8 µM (inactive)
- GI50 (HL-60): 33.5 µM (inactive)
- GI50 (K562): 39.1 µM (inactive)
- GI50 (SNB-75): 23.8 µM (inactive)
- GI50 (IGROV-1): > 100 µM (inactive)
- GI50 (UO-31): 15.8 µM (inactive)
- GI50 (NCI/ADR-RES): 55.2 µM (inactive)
- GI50 (M14): 51.8 µM (inactive)
- GI50 (U-251): > 100 µM (inactive)
- GI50 (SK-MEL-5): 27.9 µM (inactive)
- GI50 (SF-268): 87.3 µM (inactive)
- GI50 (SK-MEL-28): 85.9 µM (inactive)
- GI50 (MOLT-4): 32.8 µM (inactive)
- GI50 (Hs-578T): 14.3 µM (inactive)
- GI50 (HCT-15): 69.3 µM
- GI50 (MCF7): > 100 µM (inactive)
- GI50 (HT-29): 62.4 µM (inactive)
- GI50 (786-0): > 100 µM (inactive)
- GI50 (SN12C): 81.1 µM (inactive)
- GI50 (LOX IMVI): > 100 µM (inactive)
- GI50 (MDA-MB-231): 77.8 µM (inactive)
- GI50 (CAKI-1): > 100 µM (inactive)
- GI50 (NCI-H226): > 100 µM (inactive)
- GI50 (PC-3): 47.9 µM (inactive)
- GI50 (UACC-62): 91.6 µM (inactive)
- GI50 (CCRF-CEM): 57.1 µM (inactive)
- GI50 (NCI-H23): > 100 µM (inactive)
- GI50 (A549): 62.7 µM (inactive)
- GI50 (RXF 393): > 100 µM (inactive)
- GI50 (SF-295): 58.2 µM (inactive)
- GI50 (DU-145): > 100 µM (inactive)
- GI50 (OVCAR-5): > 100 µM (inactive)

SMILES: CN(CCc1ccccn1)c1ccc2c(c1)Cc1ccccc1-2
- GI50 (SW-620): 48.4 µM (inactive)
- GI50 (EKVX): 16.6 µM (inactive)
- GI50 (KM12): 14.4 µM (inactive)
- GI50 (Malme-3M): 9.68 µM (inactive)
- GI50 (SK-OV-3): 24.2 µM (inactive)
- GI50 (UACC-257): 26.2 µM (inactive)
- GI50 (HCT-116): 11.1 µM (inactive)
- GI50 (OVCAR-8): 18.4 µM (inactive)
- GI50 (MDA-MB-435): 31 µM (inactive)
- GI50 (OVCAR-4): 22.5 µM (inactive)
- GI50 (T47D): 25.2 µM (inactive)
- GI50 (RPMI-8226): 14.1 µM (inactive)
- GI50 (TK-10): 31.5 µM (inactive)
- GI50 (COLO 205): 15.7 µM (inactive)
- GI50 (HOP-62): 16.1 µM (inactive)
- GI50 (A498): 16.8 µM (inactive)
- GI50 (SNB-19): 19.3 µM (inactive)
- GI50 (HCC 2998): 29.5 µM (inactive)
- GI50 (OVCAR-3): 26.1 µM (inactive)
- GI50 (BT-549): 14.7 µM (inactive)
- GI50 (HL-60): 20.4 µM (inactive)
- GI50 (K562): 9.31 µM (inactive)
- GI50 (SNB-75): 17.9 µM (inactive)
- GI50 (IGROV-1): 16.1 µM (inactive)
- GI50 (UO-31): 38.2 µM (inactive)
- GI50 (NCI/ADR-RES): 26.9 µM (inactive)
- GI50 (M14): 26.7 µM (inactive)
- GI50 (U-251): 5.35 µM (inactive)
- GI50 (SK-MEL-5): 12.6 µM (inactive)
- GI50 (SF-268): 6.5 µM (inactive)
- GI50 (NCI-H522): 8.69 µM (inactive)
- GI50 (NCI-H460): 5.75 µM (inactive)
- GI50 (SK-MEL-28): 29.2 µM (inactive)
- GI50 (MOLT-4): 5.42 µM (inactive)
- GI50 (Hs-578T): 4.54 µM (inactive)
- GI50 (HCT-15): 3.43 µM
- GI50 (MCF7): 20.1 µM (inactive)
- GI50 (HT-29): 23.1 µM (inactive)
- GI50 (786-0): 25.8 µM (inactive)
- GI50 (SN12C): 33.8 µM (inactive)
- GI50 (LOX IMVI): 16.3 µM (inactive)
- GI50 (MDA-MB-231): 3.09 µM (inactive)
- GI50 (CAKI-1): 61.4 µM (inactive)
- GI50 (NCI-H226): 14.9 µM (inactive)
- GI50 (PC-3): 2.92 µM (inactive)
- GI50 (UACC-62): 10.6 µM (inactive)
- GI50 (CCRF-CEM): 10.2 µM (inactive)
- GI50 (ACHN): 22.5 µM (inactive)
- GI50 (HOP-92): 10.2 µM (inactive)
- GI50 (NCI-H23): 27.7 µM (inactive)
- GI50 (A549): 13.6 µM (inactive)
- GI50 (RXF 393): 25.1 µM (inactive)
- GI50 (SF-295): 12.1 µM (inactive)
- GI50 (DU-145): 43.7 µM (inactive)
- GI50 (OVCAR-5): 28.4 µM (inactive)
